The record followed here is patent US20160052936A1, “SPIROINDOLINE DERIVATIVES FOR USE AS GONADOTROPIN-RELEASING HORMONE RECEPTOR ANTAGONISTS” (BAYER PHARMA AKTIENGESELLSCHAFT, priority 2013, published 2016).

Assay [1] has as its target T1, human GnRHR (Homo sapiens, UniProt P30968).
T1 construct: own knowledge: Tag-lite cells usually carry an N-terminal SNAP-tag fusion; host or cells: Hek293 cells, transiently transfected, supplied frozen
T1 sequence (P30968 1-328): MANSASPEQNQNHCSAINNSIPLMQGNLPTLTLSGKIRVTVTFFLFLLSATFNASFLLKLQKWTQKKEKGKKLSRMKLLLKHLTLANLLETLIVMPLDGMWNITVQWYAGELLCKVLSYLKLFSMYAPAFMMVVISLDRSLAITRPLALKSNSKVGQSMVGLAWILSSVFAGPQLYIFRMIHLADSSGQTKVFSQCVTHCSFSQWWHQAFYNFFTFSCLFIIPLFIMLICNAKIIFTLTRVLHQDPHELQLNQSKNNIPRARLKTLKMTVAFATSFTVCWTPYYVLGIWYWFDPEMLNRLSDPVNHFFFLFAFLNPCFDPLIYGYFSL
In words: Tag-Lite receptor binding assay. The settings on record: Hek293 cells transiently transfected with human GnRHR; displacement of green-labelled GnRHR binding peptide; read-out: Potency in receptor binding assay using TAG-LITE technology, given as IC50. An excerpt:
2.2. Tag-Lite® Receptor Binding Assay
This binding assay is based on the fluorescence resonance energy transfer between fluorescence donor labelled human GnRHR and a green-labelled GnRHR binding peptide. Compounds interfering with the ligand binding side of the human GnRHR will replace the labelled peptide resulting in a signal decrease. The assay principle was established by Cisbio Bioassays (Bagnols-sur-Cèze Cedex, France) and further details are available on their homepage.
The assay procedure was further optimized for use in-house with reduced assay volumes. Frozen Hek293 cells, transiently transfected with human GnRHR and Terbium-labelling of the receptor, were supplied by Cisbio Bioassays as well as Tag-Lite buffer and green-labelled GnRHR binding peptide. Cells were thawed and transferred to cold Tag-Lite buffer. A volume of 8 μl of this cell suspension were added to 100 nl of a 160-fold concentrated solution of the test compound in DMSO pre-dispensed in a well of a white low-volume 384-well microtiter plate (Greiner Bio-One, Frickenhausen, Germany). The mixture was incubated for 5 min at room temperature. In the next step either 4 μl Tag-Lite buffer or as control 4 μl of an exceeding amount unlabelled binding peptide in Tag-Lite buffer were transferred to the mixture. The green-labelled GnRHR binding peptide was added in a final step at EC50 in a volume of 4 μl Tag-Lite buffer. After an incubation of 1 h at room temperature plates were measured in a microplate reader, e.g. a PHERAstar (BMG Labtechnologies, Offenburg, Germany) by using a specific optic module.
A ratio from the fluorescence emissions at 520 nm (green fluorescence) and at 490 nm (background signal of Terbium-labelled GnRHR) was calculated and the data were normalized (reaction without test compound=0% inhibition of binding of green-labelled peptide; reaction without test compound with exceeding amount unlabelled binding peptide=100% inhibition of binding of green-labelled peptide). On the same microtiter plate, compounds were tested at 10 different concentrations in the range of 12.5 μM to 0.64 nM (12.5 μM, 4.2 μM, 1.4 μM, 0.46 μM, 0.15 μM, 51 nM, 17 nM, 5.7 nM, 1.9 nM and 0.64 nM; dilution series prepared before the assay at the level of the 160-fold conc. stock solutions by serial 1:3 dilutions in 100% DMSO) in duplicate values for each concentration. By using an in-house software, the IC50 values were calculated by a 4 parameter fit.

Assay [2] has as its system LH level in ovariectomized rats. In words: LH suppression in the ovariectomized rat. The class given is in vivo. The settings on record: for LH suppression: 8 hours after administration. The text has this:
2.5. LH Suppression in the Ovariectomized Rat
The in vivo potency of GnRH antagonists can be quantified by a LH suppression test in ovariectomized rats. GnRH triggers the LH release from the pituitary mediated by GnRH receptors. Ovarectomy of adult female rats results in elevated levels of circulating LH due to a lack of negative feedback by gonadal steroids. GnRH antagonists suppress the release of LH and accordingly suppression of LH levels can be used to quantify the in vivo potency of GnRH antagonists.
Female adult rats were ovariectomized surgically and they were allowed to recover for at least one week. The animals received 0.5 mg/kg, 3 mg/kg or 10 mg/kg of Example 3.1 by single per oral administration. For comparison reasons a vehicle control and a positive control, 0.1 mg/kg cetrorelix (i.p.), were given once. At 0 min, 15 min, 30 min, 1 hour, 2 hours, 4 hours, 8 hours and 24 hours after compound administration blood was taken from the retro orbital plexus (n=6 per blood withdrawal) for the measurement of serum LH and serum compound levels.
As nonbinding explanatory example of compounds according to the invention FIG. 1 represents the LH level following administration of the compound according to Example 3.1, to ovariectomized adult rats. [Filled circle: Vehicle; Circle, dotted black line: Cetrorelix (0.1 mg/kg); Triangle: Example 3.1 (0.5 mg/kg); Reverse triangle: Example 3.1 (3 mg/kg); Diamond: Example 3.1 (10 mg/kg)]. Values are given as mean+standard deviation (n=6).

`O=C(NCc1ncc(C(F)(F)F)cc1F)c1ccc2c(c1)C1(CCS(=O)(=O)CC1)[C@H](C1CC1)N2S(=O)(=O)c1ccc(F)cc1` (single isomer, unassigned) [Example 1.1]: the IC50 (as a rule, the point on the concentration scale where inhibition reaches its midpoint) in assay [1] was 230 nM.
Same read-out and setting: under `N#Cc1cccc(S(=O)(=O)N2c3ccc(C(=O)NCc4ncc(C(F)(F)F)cc4Cl)cc3C3(CCS(=O)(=O)CC3)[C@@H]2C2CC2)c1` (single isomer, unassigned) [Example 10.1] stands 10.3 nM.
Take `O=C(NCc1ncc(C(F)(F)F)cc1Cl)c1ccc2c(c1)C1(CCS(=O)(=O)CC1)[C@H](C1CC1)N2S(=O)(=O)c1ccc(F)cc1` [Example 3.1, (2S)—N-{[3-chloro-5-(trifluoromethyl)pyridin-2-yl]methyl}-2-cyclopropyl-1-[(4-fluorophenyl)sulfonyl]-1,2,2′,3′,5′,6′-hexahydrospiro[indole-3,4′-thiopyran]-5-carboxamide 1′,1′-dioxide]: the LH suppression in assay [2] (0.5 mg/kg single per oral administration) came to 19%; in assay [2] (3 mg/kg single per oral administration), 48%; in assay [2] (10 mg/kg single per oral administration), 90%. In assay [2] (per oral administration), the “in vivo GnRH antagonist activity (conclusion)” value was “orally active GnRH antagonist in vivo”. Moreover, the IC50 in assay [1] came out at 16.7 nM.
